This is an account of results in US10745355B2, “Anti-cancer compounds” (THE UNIVERSITY OF SYDNEY, priority 2015, dated 2020).

SMILES strings stand for the structures.

For series [1], the system named is U87. As to the kind of experiment: Alamar blue cell viability assay, U87 cells. It counts as cell-based. Particulars: Homo sapiens, U-87 MG; 72 hours of treatment; mean±SEM, three independent experiments. As for the experimental part: (§1) U87 and U251 cell lines were obtained from the European Collection of Cell Cultures (ECACC) through CellBank Australia. U87-EGFRvIII cell line was obtained from their lab of origin (Nishikawa et al., 1994, Proc Natl Acad Sci USA 91: 7727-7731) and tested for EGFR amplification and mutation by immunoblotting and flow cytometry. Cells were cultured in DMEM medium (Invitrogen by Life Technologies, Carlsbad, Calif., USA) supplemented with 10% FBS (Sigma-Aldrich) at 37° C. and 5% CO2. Primary gliomaspheres (RN1, classical; WK1, mesenchymal) were derived from glioblastoma specimens (Day et al., 2013, Cancers 5: 357-371; Day et al., 2013, Cancer Cell 23: 238-248), maintained in StemPro NSC serum-free media supplemented with EGF and FGF (all Life Technologies), and grown on matrigel-coated flasks (Pollard et al., 2009, Cell Stem Cell 4: 568-580).
(§2) Cell viability was determined using Alamar blue assay after 72 hours of treatment (Table 2). EC50 values were calculated using non-linear regression on Graph Pad Prism version 5. c Log P values calculated using ChemBioDraw Software. Results are mean±SEM from three independent experiments performed in triplicates.
Background: Resazurin is reduced to fluorescent resorufin, in cell work by metabolically active cells.

In series [2] the test system is U87vIII. Description: Alamar blue cell viability assay, U87vIII cells. It counts as cell-based. Particulars: 72 hours of treatment; mean±SEM, three independent experiments. How it is done: as §1, §2
For series [3], the system named is U251. Description: Alamar blue cell viability assay, U251 cells. It counts as cell-based. The conditions noted are these: Homo sapiens, U-251; 72 hours of treatment; mean±SEM, three independent experiments. As for the experimental part:
as §1, §2

Series [4] has as its target T1, Porcine brain tubulin (Sus scrofa, UniProt P02550+P02554).
T1 construct: purchased Cytoskeleton, Colo., USA (Tubulin Polymerisation Assay kit); host or cells: porcine brain (tissue-purified)
As to the kind of experiment: Fluorescence-based tubulin polymerisation assay. It counts as biochemical. The conditions noted are these: 37° C., FIG. 10A. How it is done:
FIGS. 10A-10D. […] (10A) Compound 1-08 inhibits tubulin polymerisation in vitro. Data are expressed as mean from at least 3 independent experiments; each data point was performed in triplicates. (10B) U87 cells treated with compound 1-08 (24 h) were stained with Alexa488-labelled anti-β-tubulin antibody (green) or DAPI (blue). Treatment profoundly disturbed the microtubule network and caused formation of multinucleated cell (white arrows). White scale bar represents 50 μm. Multinucleated cells were manually counted and at least 200 cells were counted for each sample. Data in the bar graph (10C) are expressed as mean±SEM (n=3; * P<0.05, *** P<0.001; 1-way ANOVA followed by Newman-Keuls posttest). (10D) U87 cells were treated with compound 1-08 (48 h), tubulin and DNA were stained as in (10B). Treatment with 1-08 caused defective mitotic spindle formation. Representative images from 3 independent experiments are shown. White scale bar represents 2 μm.
The effect of compound 1-08 on tubulin polymerisation and mitotic spindle formation was also investigated. The fluorescence-based tubulin polymerisation assay was conducted in the final volume of 55 μL using the Tubulin Polymerisation Assay kit (Cytoskeleton, Colo., USA) as per the manufacturer's instructions. Porcine brain tubulin was incubated with test compounds (paclitaxel, vinblastine and compound 1-08) at 37° C. and fluorescence was measured using FLUOstar Omega microplate reader (BMG Labtech, Ortenberg, Germany; excitation at 355 nm and emission at 460 nm). […] To test whether compound 1-08 alters microtubules in vivo, U87 glioblastoma cells were treated with compound 1-08 and the effect on the microtubules was determined by immunofluorescence staining of β-tubulin. […] The consequence of microtubule depolymerisation induced by compound 13 was disrupted spindle assembly (FIG. 10D). In untreated U87 cells undergoing mitosis, microtubules are assembled into bipolar spindles (control images).

Series [5] deals with WK1 gliomaspheres (mesenchymal). As to the kind of experiment: AlamarBlue cell viability assay, WK1 gliomaspheres. Particulars: 72 h of drug treatment, FIG. 11B. It counts as cell-based. How it is done: (§3) FIGS. 11A-11B. Efficacy of SC-38 (referred to as “CMPD1”), compound 1-08 (referred to as “cmpd 13”), compound 1-18 (referred to as “cmpd 7”), and compound 1-38 (referred to as “cmpd 10”) in primary gliomaspheres representing two glioblastoma subtypes. (11A) RN1, classical, and (11B) WK1, mesenchymal. Cellular efficacy (EC50) of test compounds was determined using AlamarBlue cell viability assay after 72 h of drug treatment. Data are mean±SEM from 3 independent experiments performed in triplicate.
as §1
The effect of SC-38, and compounds 1-08, 1-18 and 1-38 in a cell viability assay employing patient-derived gliomaspheres was also investigated. RN1 gliomaspheres representing glioblastoma of the classical subtype were most responsive to the treatment (FIG. 11, where SC-38 is referred to as “CMPD1”, compound 1-08 is referred to as “compound 13”, compound 1-18 is referred to as “compound 7”, and compound 1-38 is referred to as “compound 10”).

Series [6] concerns U87vIII. As to the kind of experiment: Annexin-FITC/7-AAD apoptosis assay, U87vIII cells. Format: cell-based. The conditions noted are these: 48 hours treatment. As for the experimental part:
(§4) FIGS. 4A-4D. […] U87 (4A-4B) and U87vIII (4C-4D) cells were treated with SC-38 for 48 hours and stained with Annexin-FITC/7-AAD. Apoptotic cells were visualized using the MUSE cell analyzer (Millipore).
(§5) FIGS. 6A-6D. […] U87 (A B) (6A-6B) and U87vIII (6C-6D) cells were treated with compound 1-08 for 48 hours and stained with Annexin-FITC/7-AAD. Apoptotic cells were visualized using the MUSE cell analyzer (Millipore). Results are means±SEM from 3 independent experiments. One-way ANOVA followed by Dunnet post-test was used to calculate statistical significance (***P<0.001).
(§6) U87 (FIGS. 4, A-B) and U87vIII (FIG. 4, C-D) cells were treated with SC-38 for 48 hours and stained with Annexin-FITC/7-AAD. Apoptotic cells were visualized using the MUSE cell analyzer (Millipore). Results are means±SEM from 3 independent experiments. One-way ANOVA followed by Dunnet post-test was used to calculate statistical significance (**P<0.01, ***P<0.001)
(§7) U87 (FIGS. 6, A-B) and U87vIII (FIG. 6, C-D) cells were treated with compound 1-08 for 48 hours and stained with Annexin-FITC/7-AAD. Apoptotic cells were visualized using the MUSE cell analyzer (Millipore). Results are means±SEM from three independent experiments. One-way ANOVA followed by Dunnet post-test was used to calculate statistical significance (***P<0.001).

Series [7] relates to U87. Description: Annexin-FITC/7-AAD apoptosis assay, U87 cells. It counts as cell-based. The conditions noted are these: 48 hours treatment. As for the experimental part: as §4, §5, §6, §7
The test system of series [8] is RN1 gliomaspheres (classical). Description: AlamarBlue cell viability assay, RN1 gliomaspheres. Format: cell-based. Particulars: 72 h of drug treatment, FIG. 11A. How it is done: as §3
as §1, with “568-580). […]” for “568-580).”

Series [9] deals with glioma cell lines. Description: Viability (Alamar Blue) and cytotoxicity (ToxiLight) in glioma cell lines. It counts as cell-based. The conditions noted are these: 10 nM-10 μM, 72 hours. How it is done:
Cells were treated with SC-38 (10 nM-10 μM) for 72 hours. Cells were subjected to viability testing (left, Alamar Blue viability assay, Invitrogen) and supernatant harvested for bioluminescent cytotoxicity analysis (right, ToxiLight™ bioassay kit, Lonza).

Series [10] can be described thus: Brain uptake in BALB/c mice. Format: in vivo. Particulars: 10 mg/kg intraperitoneally, brains harvested at 30 and 60 min, HPLC. As for the experimental part:
BALB/c mice were injected intraperitoneally with tested inhibitor (10 mg/kg) and brains harvested at 30 and 60 min. Solid-phase extraction was performed using brain homogenates and the amount of the test compound was determined with HPLC. Lapatinib data are from Polli, J. W. et al. “The Role of Efflux and Uptake Transporters in N-{3-Chloro-4-[(3-fluorobenzyl)oxy]phenyl}-6-[5-({[2-(methylsulfonyl)ethyl]amino}methyl)-2-furyl]-4-quinazolinamine (GW572016, Lapatinib) Disposition and Drug Interactions”, Drug Metabolism and Disposition 36, 695-701 (2008).

T1 sequence (P02550 whole entry): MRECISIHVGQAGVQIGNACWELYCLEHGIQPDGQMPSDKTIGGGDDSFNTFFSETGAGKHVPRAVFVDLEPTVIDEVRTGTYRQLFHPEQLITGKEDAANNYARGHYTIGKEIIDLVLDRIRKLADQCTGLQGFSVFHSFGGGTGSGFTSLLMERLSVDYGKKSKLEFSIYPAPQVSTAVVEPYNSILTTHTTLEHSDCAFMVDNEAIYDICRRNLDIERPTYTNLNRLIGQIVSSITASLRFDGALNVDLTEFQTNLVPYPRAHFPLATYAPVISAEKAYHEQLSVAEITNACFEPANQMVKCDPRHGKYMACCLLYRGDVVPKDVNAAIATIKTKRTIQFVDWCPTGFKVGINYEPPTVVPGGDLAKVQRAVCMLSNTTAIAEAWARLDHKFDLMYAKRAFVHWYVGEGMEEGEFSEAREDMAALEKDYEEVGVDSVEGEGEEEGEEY
T1 sequence (P02554 whole entry): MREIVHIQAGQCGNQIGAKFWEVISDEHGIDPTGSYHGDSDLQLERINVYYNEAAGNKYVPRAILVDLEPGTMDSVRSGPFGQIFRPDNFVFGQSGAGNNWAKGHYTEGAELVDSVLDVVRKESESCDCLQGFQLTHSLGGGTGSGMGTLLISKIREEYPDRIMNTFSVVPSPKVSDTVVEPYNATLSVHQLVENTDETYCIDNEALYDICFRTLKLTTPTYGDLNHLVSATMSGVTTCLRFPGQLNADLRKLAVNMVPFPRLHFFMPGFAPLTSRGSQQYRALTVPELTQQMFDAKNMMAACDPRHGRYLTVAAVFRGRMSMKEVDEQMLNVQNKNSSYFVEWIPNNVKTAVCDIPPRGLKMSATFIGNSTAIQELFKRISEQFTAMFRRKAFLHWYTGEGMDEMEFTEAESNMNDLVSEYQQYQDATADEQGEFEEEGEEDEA

With `NCc1ccc(-c2ccc(CCCC(=O)Nc3ccc(O)cc3)cc2)cc1` [Compound 1-07, 4-(4′-(aminomethyl)-[1,1′-biphenyl]-4-yl)-N-(4-hydroxyphenyl)butanamide], the values for the half-maximal effective concentration (EC50) in series [1], in series [2] and in series [3] were 1.8 ± 0.3 µM, 3.1 ± 1 µM and 1.5 ± 0.3 µM, respectively.
Taken in the same sequence, the figures for `O=C(CCCc1ccc(-c2ccc(F)nc2)cc1)Nc1ccc(O)cc1` [Compound 1-21, 4-(4-(6-fluoropyridin-3-yl)phenyl)-N-(4-hydroxyphenyl)butanamide] were 4.8 ± 1.2 µM, above 10 µM and above 10 µM.
In the same order, the values of `O=C(CCCc1ccc(Br)cc1)Nc1ccc(O)cc1` [Compound 1-17, 4-(4-bromophenyl)-N-(4-hydroxyphenyl)butanamide] are above 10 µM, above 10 µM and above 10 µM.
In the case of `COc1ncc(-c2ccc(CCCC(=O)Nc3ccc(O)cc3)cc2)cn1` [Compound 1-19, N-(4-hydroxyphenyl)-4-(4-(2-methoxypyrimidin-5-yl)phenyl)butanamide], the EC50 in [1], in series [2] and in [3] was above 10 µM each time.
On to `CC[C@]1(O)C[C@@H]2CN(CCc3c([nH]c4ccccc34)[C@@](C(=O)OC)(c3cc4c(cc3OC)N(C)[C@H]3[C@@](O)(C(=O)OC)[C@H](OC(C)=O)[C@]5(CC)C=CCN6CC[C@]43[C@@H]65)C2)C1` [vinblastine], for which the “effect on tubulin polymerisation compared to control” value in [4] is reported as “inhibited tubulin polymerisation in a dose-dependent manner”.
Take `O=C(CCCc1ccc(-c2cccnc2)cc1)Nc1ccc(O)cc1` [Compound 1-38, N-(4-hydroxyphenyl)-4-(4-(pyridin-3-yl)phenyl)butanamide]: the results for the EC50 in [1], in [2] and in series [3] were 4.6 ± 0.8 µM, 4.3 ± 0.3 µM and 1.2 ± 0.1 µM, respectively.
With `O=C(CCCc1ccc(-c2ccccc2F)cc1)Nc1ccc(O)cc1` [SC-38, reference compound], the 50% effective concentration (EC50) (in general, the concentration needed to bring the measured effect to its halfway point) in series [5] was determined as 0.91 µM; in series [1], 0.38 ± 0.1 µM; in series [2], 0.68 ± 0.1 µM; in series [3] it was 0.43 ± 0.1 µM; in [8], 0.26 µM. The “apoptosis, U87vIII” value in series [6] was “induced apoptosis”. In series [7], the “apoptosis, U87” value is given as “induced apoptosis”. In series [9] (Alamar Blue), the “viability of glioma cell lines” value is recorded as “decreases viability of glioma cell lines”. Also, the “cytotoxicity (ToxiLight)” value in series [9] (supernatant) is “selectively cytotoxic”.
Regarding `O=C(CCCc1ccc(-c2cncnc2)cc1)Nc1ccc(O)cc1` [Compound 1-01, N-(4-hydroxyphenyl)-4-(4-(pyrimidin-5-yl)phenyl)butanamide], the concentration for a half-maximal effect (EC50) in [1], in series [2] and in [3] was above 10 µM each time.
Turning to `O=C(CCCc1ccc(-c2cccnc2F)cc1)Nc1ccccc1` [Compound 1-20, 4-(4-(2-fluoropyridin-3-yl)phenyl)-N-phenylbutanamide], the concentration for a half-maximal effect (EC50) in series [1] was 6.6 ± 0.9 µM; in series [2], above 10 µM; in [3], 4.6 ± 0.2 µM.
On to `CC(=O)O[C@H]1C(=O)[C@@]2(C)[C@H]([C@H](OC(=O)c3ccccc3)[C@]3(O)C[C@H](OC(=O)[C@H](O)[C@@H](NC(=O)c4ccccc4)c4ccccc4)C(C)=C1C3(C)C)[C@]1(OC(C)=O)CO[C@@H]1C[C@@H]2O` [paclitaxel], for which the “effect on tubulin polymerisation compared to control” value in series [4] is “enhanced tubulin polymerisation”.
As for `O=C(CCCc1ccc(-c2cccnc2F)cc1)Nc1ccc(O)cc1` [Compound 1-18, 4-(4-(2-fluoropyridin-3-yl)phenyl)-N-(4-hydroxyphenyl)butanamide], the half-maximal effective concentration (EC50) in [5] was 2 µM; in series [1], 1.4 ± 0.2 µM; in series [2], 1.7 ± 0.1 µM; in [3] it was 1.6 ± 0.2 µM. In series [10], the “brain uptake / crossing of the BBB” value is recorded as “readily crossed the BBB”.
As for `O=C(CCCc1ccc(-c2ccc(F)nc2F)cc1)Nc1ccc(O)cc1` [Compound 1-22, 4-(4-(2,6-difluoropyridin-3-yl)phenyl)-N-(4-hydroxyphenyl)butanamide], the EC50 is 2.9 ± 0.9 µM in [1], 3.4 ± 0.4 µM in [2] and 1.65 ± 0.1 µM in [3].
